Values of other authors in patent US20060286181A1, “Diet supplements for causing fast weight loss, improving daytime energy, promoting nighttime relaxation and sleep, controlling appetite and/or increasing metabolism” (priority 2005, published 2006).
Like-named read-outs stand apart in the source and are kept apart here.

Assays:
[1] = test system: benzodiazepine binding site in the gamma-aminobutyric acid receptor type A (GABA(A))
[2] = in vivo
fatty acid synthesis = conditions: rats
appetite = conditions: rats
ATP:citrate lyase = target: T1, ATP:citrate lyase (Homo sapiens, UniProt P53396)
T1 sequence (P53396 1-1101): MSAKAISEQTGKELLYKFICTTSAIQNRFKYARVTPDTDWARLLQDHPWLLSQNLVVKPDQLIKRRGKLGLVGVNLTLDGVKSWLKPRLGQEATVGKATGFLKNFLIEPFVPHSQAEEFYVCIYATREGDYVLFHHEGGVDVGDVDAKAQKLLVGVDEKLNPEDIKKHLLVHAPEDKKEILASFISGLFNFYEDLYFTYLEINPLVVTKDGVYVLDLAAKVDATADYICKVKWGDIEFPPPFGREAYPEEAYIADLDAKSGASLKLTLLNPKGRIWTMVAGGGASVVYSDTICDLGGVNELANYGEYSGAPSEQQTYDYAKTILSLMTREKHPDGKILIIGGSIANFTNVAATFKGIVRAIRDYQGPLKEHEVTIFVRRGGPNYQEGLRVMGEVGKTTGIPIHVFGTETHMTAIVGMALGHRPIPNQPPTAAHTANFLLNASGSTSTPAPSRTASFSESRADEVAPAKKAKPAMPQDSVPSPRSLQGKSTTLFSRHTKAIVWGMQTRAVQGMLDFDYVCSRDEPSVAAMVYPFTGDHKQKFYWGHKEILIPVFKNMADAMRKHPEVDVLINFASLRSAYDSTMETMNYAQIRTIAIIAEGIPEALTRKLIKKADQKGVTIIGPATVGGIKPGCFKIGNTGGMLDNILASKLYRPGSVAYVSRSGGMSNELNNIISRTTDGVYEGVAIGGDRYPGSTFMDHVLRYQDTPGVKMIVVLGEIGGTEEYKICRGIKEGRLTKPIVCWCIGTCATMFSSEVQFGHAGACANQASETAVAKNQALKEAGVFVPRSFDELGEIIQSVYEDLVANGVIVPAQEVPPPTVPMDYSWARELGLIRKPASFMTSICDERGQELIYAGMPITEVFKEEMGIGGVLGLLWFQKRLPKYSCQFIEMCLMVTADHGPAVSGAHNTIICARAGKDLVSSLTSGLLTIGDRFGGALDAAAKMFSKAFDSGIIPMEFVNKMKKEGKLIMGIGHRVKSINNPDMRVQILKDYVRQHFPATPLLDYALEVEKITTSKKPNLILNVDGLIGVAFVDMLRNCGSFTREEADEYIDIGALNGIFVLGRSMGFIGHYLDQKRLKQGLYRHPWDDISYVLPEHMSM

[3] = meta-analysis of forty double-blind studies
[4] = not given; remark: listed apart in the source
[5] = not given; remark: listed apart in the source
[6] = 8 weeks, overweight subjects
diet-induced weight gain = conditions: mice
[7] = daily supplementation with moderate exercise, 8 weeks
[8] = not given; remark: listed apart in the source
[9] = at least three clinical trials

In the case of `O=c1cc(-c2ccc(O)cc2)oc2cc(O)cc(O)c12` [Apigenin], the “binding to benzodiazepine binding site of GABA(A)” value [1] is given as “can bind”, the “memory and motor skills” value [2] is given as “without impairing memory or motor skills” and the “sedation and locomotor activity” value [2] is given as “sedation and a reduction in locomotor activity”.
In the case of `O=C(O)CC(O)(C(=O)O)C(O)C(=O)O` (centres unmarked) [HCA, Hydroxycitric acid], the fatty acid synthesis (fatty acid synthesis) is given as “inhibit fatty acid synthesis”, the appetite (appetite) is given as “repress appetite” and the “inhibition of ATP:citrate lyase” value (ATP:citrate lyase) is given as “competitive inhibitor”. The caloric intake (clinical studies) was “reduction caloric intake”, the safety (human clinical trials) was “demonstrated safety” and the levels of serotonin (human, in vivo) was “significantly increased”. The “fat oxidation during exercise” value (untrained men and women) was “increasing fat oxidation”.
For `Cn1c(=O)c2c(ncn2C)n(C)c1=O` [caffeine, Caffeine], the physical endurance [3] is given as “increase physical endurance”, the basal metabolic rate ([4]; in vivo) is given as “increase the basal metabolic rate” and the weight loss ([4]; obese women) is given as “Significant weight loss”. The “binding to and activation of adenosine receptors” value (adenosine receptors) was “binds to, but does not activate”.
In the case of Phosphatidylserine, the cortisol levels ([5]; clinical trials) is given as “lower cortisol levels”, the stress ([5]; clinical trials) is given as “reduce stress” and the exercise capacity ([5]; human, in vivo) is given as “increase exercise capacity”. The mood ([5]; human, in vivo) was “positively affect mood”.
For Chromium Polynicotinate, the systolic blood pressure (Metabolic Syndrome; compared to control groups) is listed as “effective in lowering systolic blood pressure”, the “free radical damage in liver and kidney tissue” value (Metabolic Syndrome; compared to controls) is listed as “less free radical damage” and the muscle loss [6] is listed as “sparing muscle from loss”. The body fat ([6]; vs placebo group) was “significant loss of body fat”.
In the case of `COc1ccc2[nH]cc(CCNC(C)=O)c2c1` [Melatonin], the diet-induced weight gain (diet-induced weight gain) is listed as “reduce diet-induced weight gain”.
For `[Cr]` [chromium, Chromium], the blood cholesterol profile [7] is given as “improved blood cholesterol profile”, the weight loss ([7]; vs placebo group) is given as “increased weight loss” and the lean mass ([8]; clinical) is given as “increase lean mass”. The body fat ([8]; combined with exercise) was “reduce body fat” and the HDL cholesterol ([8]; in vivo) was “increase HDL”.
In the case of `N[C@@H](Cc1c[nH]c2ccc(O)cc12)C(=O)O` [Example 5-HTP, 5-hydroxy-L-tryptophan], the “weight loss, safety and efficacy” value [9] is given as “safely and effectively to aid in weight loss”.
